The results in this text go back to PMC2898382 (The Journal of Biological Chemistry, 2010).

In this experiment the target is T1, purified bovine catalase (Bos taurus, UniProt P00432).
T1 sequence (P00432 2-527): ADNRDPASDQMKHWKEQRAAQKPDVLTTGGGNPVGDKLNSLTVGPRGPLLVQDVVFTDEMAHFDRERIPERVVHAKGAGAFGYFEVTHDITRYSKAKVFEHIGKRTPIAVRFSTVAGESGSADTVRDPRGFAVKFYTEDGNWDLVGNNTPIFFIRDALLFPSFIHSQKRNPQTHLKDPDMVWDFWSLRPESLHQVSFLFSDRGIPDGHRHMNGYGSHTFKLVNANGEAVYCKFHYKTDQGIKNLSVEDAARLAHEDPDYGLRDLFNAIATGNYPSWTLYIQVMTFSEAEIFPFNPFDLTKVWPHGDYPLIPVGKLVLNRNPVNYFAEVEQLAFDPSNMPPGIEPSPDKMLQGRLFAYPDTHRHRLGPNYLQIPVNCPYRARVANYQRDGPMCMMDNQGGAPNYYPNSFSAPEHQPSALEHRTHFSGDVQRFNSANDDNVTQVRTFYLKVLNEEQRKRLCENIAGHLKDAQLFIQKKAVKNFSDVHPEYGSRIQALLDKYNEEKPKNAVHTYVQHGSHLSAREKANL
Nature of the experiment: H2O2 breakdown at […] nm, global fit to competitive inhibition model. The format is biochemical.

Compound `NC(=O)NO` [Hydroxyurea] gave an inhibition constant (Ki) of 230 µM.
